The series concerns rodent carcinogenicity bioassays, tumor incidence. Nature of the series: CCRIS carcinogenicity studies. The procedure, abridged:
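Archive of carcinogenicity, mutagenicity, tumor promotion and tumor inhibition results drawn from journals, NCI reports and other sources, expert-reviewed; covers 1985-2011 and is no longer updated.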

The source made the active and inactive calls. No rule for the calls is given here.

Regarding `Oc1cc(O)c2c(c1)O[C@H](c1ccc(O)c(O)c1)[C@@H](O)C2`, the carcinogen call is, setting by setting: (Species: RAT, Strain/Sex: F344/FEMALE, Route: ORAL, Dose: 0, 2% IN DIET FOR 104 WK (STUDY DURATION: 104 WK), Tumor Site: Type of Lesion: GLANDULAR STOMACH: ADENOCARCINOMA) “active; positive”; (Species: RAT, Strain/Sex: F344/MALE, Route: ORAL, Dose: 0, 2% IN DIET FOR 104 WK (STUDY DURATION: 104 WK), Tumor Site: Type of Lesion: GLANDULAR STOMACH: ADENOCARCINOMA) “active; positive”.
Turning to `c1ccc2cc3c(ccc4ccccc43)cc2c1`, the carcinogen call (Species: MOUSE, Route: DERMAL, Tumor Site: Type of Lesion: INTEGUMENTARY SYSTEM (SKIN)) is “active; positive”; the carcinogen call (Species: MOUSE, Route: IMPLANT, Tumor Site: Type of Lesion: URINARY BLADDER) is “active; positive”; the carcinogen call (Species: MOUSE, Route: ORAL, Tumor Site: Type of Lesion: LIVER, LUNG) is “active; positive”; the carcinogen call (Species: MOUSE, Route: SUBCUTANEOUS, Tumor Site: Type of Lesion: INJECTION SITE) is “active; positive”; the carcinogen call (Species: MOUSE, Strain/Sex: B6C3F1/MALE, Route: INTRAPERITONEAL, Dose: 0, 1600 NMOL IN 35 µL DMSO TOTAL DOSE AT 1 D (1/7 TOTAL DOSE), 8 D (2/7 TOTAL DOSE), AND 15 D (4/7 TOTAL DOSE) OF AGE (S, Tumor Site: Type of Lesion: LIVER: ADENOMA, CARCINOMA) was “active; positive”; the carcinogen call (Species: MOUSE, Strain/Sex: SWISS/MALE,FEMALE, Route: INTRAPERITONEAL, Dose: 0, 2800 NMOL TOTAL DOSE, D 1, 8, AND 15 OF LIFE, Dose: 0, 2800 NMOL TOTAL DOSE, D 1, 8, AND 15 OF LIFE, Tumor Site: Type of Lesion: LUNG: ADENOMA, MALIGNANT LYMPHOMA) is “active; positive”.
For `O[C@@H]1[C@@H]2O[C@@H]2c2c(cc3ccc4cccc5ccc2c3c45)[C@H]1O`, the carcinogen call is “active; positive” (Species: MOUSE, Strain/Sex: ICR/FEMALE, Route: INTRAPERITONEAL, Dose: 0, 25 NMOL (TOTAL DOSE) ADMINISTERED IN DOSES OF 1/7, 2/7, AND 4/7 ON DAYS 1, 7, AND 15 OF LIFE, RESPECTIVELY (STUDY DUR, Tumor Site: Type of Lesion: LUNG: TUMOR); “active; positive” (Species: MOUSE, Strain/Sex: ICR/FEMALE, Route: INTRAPERITONEAL, Dose: 0;25 NMOL TOTAL DOSE INJECTED IN DOSES OF 1/7 ON DAY 1, 2.7 ON DAY 8, AND 4/7 ON DAY 15 OF LIFE (STUDY DURATION: 35 WK), Tumor Site: Type of Lesion: LUNG: TUMOR); “active; positive” (Species: MOUSE, Strain/Sex: ICR/MALE, Route: INTRAPERITONEAL, Dose: 0, 25 NMOL TOTAL DOSE INJECTED IN DOSES OF 1/7 ON DAY 1, 2/7 ON DAY 8, AND 4/7 ON DAY 15 OF LIFE (STUDY DURATION: 35 WK), Tumor Site: Type of Lesion: LUNG:TUMOR); “active; positive” (Species: MOUSE, Strain/Sex: ICR/MALE, Route: INTRAPERITONEAL, Dose: 0, 25 NMOL (TOTAL DOSE) ADMINISTERED IN DOSES OF 1/7, 2/7, AND 4/7 ON DAYS 1, 7, AND 15 OF LIFE, RESPECTIVELY (STUDY DUR, Tumor Site: Type of Lesion: LUNG: TUMOR); “active; positive” (Species: RAT, Strain/Sex: STRAIN-CD/FEMALE, Route: INJECTION, Dose: 0, 2.04 UMOL IN 0.1 ML DMSO 3 INJECTIONS INTO MAMMARY TISSUE BENEATH THE 3 LEFT THORACIC NIPPLES ON THE NEXT DAY PROCEDU, Tumor Site: Type of Lesion: MAMMARY GLAND: TUMOR); “active; positive” (Species: RAT, Strain/Sex: STRAIN-CD/FEMALE, Route: INJECTION, Dose: 0, 2.04 UMOL IN 0.1 ML DMSO INJECTED BENEATH EACH THE THREE LEFT THORACIC NIPPLES THEN ON THE NEXT DAY BENEATH EACH OF T, Tumor Site: Type of Lesion: MAMMARY GLAND: TUMOR).
Turning to `Cc1ccc([N+](=O)[O-])cc1N`, the carcinogen call is, setting by setting: (Species: MOUSE, Strain/Sex: B6C3F1/FEMALE, Route: ORAL, Dose: 0, 0.12, 0.23% OF DIET, TWA, Dose: 0, 0.12, 0.23% OF DIET, TWA, Tumor Site: Type of Lesion: LIVER: HEPATOCELLULAR CARCINOMA, BLOOD VESSELS: HEMANGIOSARCOMA) “active; positive”; (Species: MOUSE, Strain/Sex: B6C3F1/MALE, Route: ORAL, Dose: 0, 0.12, 0.23% OF DIET, TWA, Dose: 0, 0.12, 0.23% OF DIET, TWA, Tumor Site: Type of Lesion: LIVER: HEPATOCELLULAR CARCINOMA, BLOOD VESSELS: HEMANGIOSARCOMA OR HEMANGIOMA) “active; positive”; (Species: RAT, Strain/Sex: F344/FEMALE, Route: ORAL, Dose: 0, 0.005, 0.01% OF DIET, TWA, Dose: 0, 0.005, 0.01% OF DIET, TWA) “inactive; negative”; (Species: RAT, Strain/Sex: F344/MALE, Route: ORAL, Dose: 0, 0.005, 0.01% OF DIET, TWA, Dose: 0, 0.005, 0.01% OF DIET, TWA) “inactive; negative”.
Take `CC(O)CN(N=O)C(=O)NCCCl` (stereo not drawn): the carcinogen call reads like this: (Species: RAT, Strain/Sex: F344/FEMALE, Route: INTRAVESICULAR, Dose: 0, 4.6 MG 2/WK FOR 30 WK (STUDY DURATION: LIFETIME), Tumor Site: Type of Lesion: BLADDER: TUMOR) “active; positive”; (Species: RAT, Strain/Sex: F344/FEMALE, Route: ORAL, Dose: 0, 46 MG/L IN DRINKING WATER 5 D/WK FOR 30 WK (STUDY DURATION: LIFETIME), Tumor Site: Type of Lesion: BLADDER: TUMOR, THYROID: FOLLICULAR TUMOR) “active; positive”; (Species: RAT, Strain/Sex: F344/MALE, Route: ORAL, Dose: 0, 46 MG/L IN DRINKING WATER 5 D/WK FOR 30 WK (STUDY DURATION: LIFETIME)) “inactive; negative”.
For the compound `COC(=O)C(C)(C)Oc1ccc(-c2ccc(Cl)cc2)cc1`, the carcinogen call (Species: RAT, Strain/Sex: F344/MALE, Route: ORAL, Dose: 0.1% IN DIET FOR 75 WK, Tumor Site: Type of Lesion: LIVER: HEPATOCELLULAR CARCINOMA) is “active; positive”.
Turning to `CN(C)CCN(Cc1ccsc1)c1ccccn1`, the carcinogen call was “inactive; negative” (Species: RAT, Strain/Sex: SPRAGUE-DAWLEY/FEMALE, Route: ORAL, Dose: 0, 500, 1000 PPM IN DRINKING WATER 5D/WK FOR LIFE (STUDY DURATION: 572-731 D), Dose: 0, 500, 1000 PPM IN DRINKING WATER 5D/WK FOR LIFE (STUDY DURATION: 572-731 D)) and “inactive; negative” (Species: RAT, Strain/Sex: SPRAGUE-DAWLEY/MALE, Route: ORAL, Dose: 0, 500, 1000 PPM IN DRINKING WATER 5D/WK FOR LIFE (STUDY DURATION: 515-576 D), Dose: 0, 500, 1000 PPM IN DRINKING WATER 5D/WK FOR LIFE (STUDY DURATION: 515-576 D)).
`O=C(O)c1ccc(N=Nc2ccc(O)c(C(=O)O)c2)cc1`: the carcinogen call was “inactive; negative” (Species: MOUSE, Strain/Sex: NMRI/FEMALE, Route: ORAL, Dose: 0, 100, 300, 900 MG/KG BW/D IN DIET FOR 107 WK (HIGH DOSE INCREASED TO 1800 MG/KG BW FROM WK 21) (STUDY DURATION: 107 WK, Dose: 0, 100, 300, 900 MG/KG BW/D IN DIET FOR 107 WK (HIGH DOSE INCREASED TO 1800 MG/KG BW FROM WK 21) (STUDY DURATION: 107 WK); “inactive; negative” (Species: MOUSE, Strain/Sex: NMRI/MALE, Route: ORAL, Dose: 0, 100, 300, 900 MG/KG BW/D IN DIET FOR 120 WK (HIGH DOSE INCREASED TO 1800 MG/KG BW FROM WK 21) (STUDY DURATION: 120 WK, Dose: 0, 100, 300, 900 MG/KG BW/D IN DIET FOR 120 WK (HIGH DOSE INCREASED TO 1800 MG/KG BW FROM WK 21) (STUDY DURATION: 120 WK); “inactive; negative” (Species: RAT, Strain/Sex: SPRAGUE-DAWLEY/MALE, Route: ORAL, Dose: 0, 300, 900, 2700 MG/KG BW/D IN DIET FOR 118 WK (HIGH DOSE REDUCED TO 1800 MG/KG BW FROM WK 68) (STUDY DURATION: 118 WK), Dose: 0, 300, 900, 2700 MG/KG BW/D IN DIET FOR 118 WK (HIGH DOSE REDUCED TO 1800 MG/KG BW FROM WK 68) (STUDY DURATION: 118 WK)); “inactive; negative” (Species: RAT, Strain/Sex: SPRAGUE/DAWLEY/FEMALE, Route: ORAL, Dose: 0, 300, 900, 2700 MG/KG BW/D IN DIET FOR 119 WK (HIGH DOSE REDUCED TO 1800 MG/KG BW FROM WK 68) (STUDY DURATION: 119 WK), Dose: 0, 300, 900, 2700 MG/KG BW/D IN DIET FOR 119 WK (HIGH DOSE REDUCED TO 1800 MG/KG BW FROM WK 68) (STUDY DURATION: 119 WK)).
